Reference: ChEMBL document CHEMBL4414667, “Uncarialins A-I, Monoterpenoid Indole Alkaloids from Uncaria rhynchophylla as Natural Agonists of the 5-HT1A Receptor” (J Nat Prod, 2019)

Target: T1, 5-hydroxytryptamine receptor 1A (Homo sapiens, UniProt P08908)
T1 sequence (P08908 whole entry): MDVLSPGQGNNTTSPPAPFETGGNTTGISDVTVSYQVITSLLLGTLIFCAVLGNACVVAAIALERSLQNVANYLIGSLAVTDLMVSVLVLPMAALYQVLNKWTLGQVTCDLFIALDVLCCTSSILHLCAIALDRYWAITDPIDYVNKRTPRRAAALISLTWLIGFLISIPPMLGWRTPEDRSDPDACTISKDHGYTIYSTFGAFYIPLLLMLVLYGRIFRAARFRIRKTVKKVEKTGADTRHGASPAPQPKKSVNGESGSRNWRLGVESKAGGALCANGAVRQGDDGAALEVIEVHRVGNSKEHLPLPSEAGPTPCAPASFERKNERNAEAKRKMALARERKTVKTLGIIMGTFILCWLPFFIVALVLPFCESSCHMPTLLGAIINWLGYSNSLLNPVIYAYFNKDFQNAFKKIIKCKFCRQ
Assay: Agonist activity at human 5HT1A receptor expressed in CHOK1 cells incubated for 16 hrs followed by forskolin-stimulation and measured after 2 hrs by dual-glo luciferase reporter gene assay
Format: cell-based

SMILES | EC50
CC[C@H]1C[N+]2([O-])CCc3c([nH]c4ccccc34)[C@H]2C[C@@H]1/C(=C\OC)C(=O)OC (stereo partly drawn) | > 100 µM
C=C[C@H]1CN2CCc3c([nH]c4ccccc34)[C@@H]2C[C@@H]1/C(=C\OC)C(=O)OC | > 100 µM
C=C[C@H]1CN2CC[C@]3(O)C(=Nc4ccccc43)[C@H]2C[C@@H]1/C(=C\OC)C(=O)OC | > 100 µM
C=C[C@H]1CN2CCc3c([nH]c4ccccc34)[C@H]2C[C@@H]1[C@@H](CO)C(=O)OC | 0.1 µM
C=C[C@H]1[C@H](O[C@@H]2O[C@H](CO)[C@@H](O)[C@H](O)[C@H]2O)OC=C2C(=O)N3CCc4c([nH]c5ccccc45)[C@@H]3C[C@H]21 | > 100 µM
C=C[C@H]1[C@H](O[C@@H]2O[C@H](CO)[C@@H](O)[C@H](O)[C@H]2O)OC=C2C(=O)N3CCc4c([nH]c5ccccc45)[C@H]3C[C@H]21 | > 100 µM
CC[C@H]1C[N@+]2([O-])CCc3c([nH]c4ccccc34)[C@H]2C[C@H]1/C(=C\OC)C(=O)OC | > 100 µM
C=C[C@H]1CN2CCc3c([nH]c4ccccc34)[C@H]2C[C@@H]1[C@H](CO)C(=O)OC | 54.4 µM
CC[C@H]1CN2CCc3c([nH]c4ccccc34)[C@H]2C[C@@H]1[C@H](CO)C(=O)OC | > 100 µM
COC(=O)C1=CO[C@@H](O[C@@H]2O[C@H](CO)[C@@H](O)[C@H](O)[C@H]2O)[C@H]2[C@@H]1C[C@H]1c3[nH]c4ccccc4c3CCN1C[C@@H]2O | 1.6 µM
COC(=O)C1=CO[C@@H](O[C@@H]2O[C@H](CO)[C@@H](O)[C@H](O)[C@H]2O)[C@@H]2[C@@H]3CN4CCc5c([nH]c6ccccc56)[C@]4(C[C@H]12)O3 | 10.2 µM
C=C[C@H]1CN2CC[C@]3(O[C@@H]2C[C@@H]1/C(=C\OC)C(=O)OC)C(=O)Nc1ccccc13 | 10.1 µM
C/C=C1\CN2CCc3c([nH]c4ccccc34)[C@H]2C[C@@H]1/C(=C\OC)C(=O)OC | > 100 µM
C=C[C@H]1C[N@@+]2([O-])CCc3c([nH]c4ccccc34)[C@H]2C[C@@H]1/C(=C\OC)C(=O)OC | 85 µM
CC[C@H]1CN2CCc3c([nH]c4ccccc34)[C@H]2C[C@H]1/C(=C\OC)C(=O)OC | > 100 µM
C=C[C@H]1C[N@@+]2([O-])CCc3c([nH]c4ccccc34)[C@H]2C[C@@H]1[C@@H](CO)C(=O)OC | > 500 µM
C/C=C1/C[N+]2([O-])CCc3c([nH]c4ccccc34)[C@@H]2C[C@@H]1/C(=C\OC)C(=O)OC (stereo partly drawn) | > 100 µM
C/C=C1\C[N@@+]2([O-])CCc3c([nH]c4ccccc34)[C@@H]2C[C@@H]1[C@H](CO)C(=O)OC | 11.4 µM
CC[C@H]1CN2CCc3c([nH]c4ccccc34)[C@H]2C[C@@H]1[C@@H](CO)C(=O)OC | 2.2 µM
C=C[C@H]1CN2CC[C@@]3(C(=O)Nc4ccccc43)[C@@H]2C[C@@H]1/C(=C\OC)C(=O)OC [ISOCORYNOXEINE] | > 100 µM
CC[C@H]1CN2CC[C@@]3(C(=O)Nc4ccccc43)[C@@H]2C[C@@H]1/C(=C\OC)C(=O)OC [ISORHYNCHOPHYLLINE] | 2 µM
CC[C@H]1CN2CC[C@]3(C(=O)Nc4ccccc43)[C@@H]2C[C@@H]1/C(=C\OC)C(=O)OC [RHYNCHOPHYLLINE] | 10.3 µM
COC(=O)C1=CO[C@@H](C)[C@@H]2CN3CCc4c([nH]c5ccccc45)[C@@H]3C[C@H]12 [TETRAHYDROALSTONINE] | > 100 µM
